Assay results taken from patent publication US9844577B1, “Medicinal composition for prevention or treatment retinal ischemia” (priority 2017, dated 2017).

Key:
Assay in all cases: Retinal protein level by western blot after retinal ischemia
Assay type in all cases: in vivo, Wistar rats
HIF-1α protein = conditions: intravitreal 5 μl 15 min before ischemia: 4 μM Shikonin, 10 μM JIB-04, 100 mg/4 ml Avastin; Vehicle 3.69±0.22
Procedure: (§1) After anesthesia, rats (200-250 g) were placed in a stereotaxic frame. A high intraocular pressure (HIOP) of 120 mmHg for 60 min was induced by cannulating the anterior chamber of one eye of an ischemic rat with a 30-gauge needle connected to an elevated 0.9% saline reservoir. The ischemic insult was confirmed by the detection of a pale eye fundus. In contrast, one eye of a control rat received a sham procedure where the saline reservoir was not elevated.
(§2) An intake of 1.35 or 2.7 g/kg/day XFZYD (Sun Ten Pharmaceutical CO, Taichung, Taiwan) was given for 7 consecutive days before or after HIOP induced retinal ischemia until the rats were sacrificed. The test rat whose eye was subjected to ischemia was fed with the constant volume (4 ml) of XFZYD or the equal volume of vehicle.
(§3) After anesthesia as described, pupil dilation with 1% tropicamide (Alcon, ZG, Switzerland) and 2.5% phenylephrine (Akorn, Inc., IL, USA) as well as surface anesthesia with 0.5% proparacaine (Alcon, ZG, Switzerland), a 30-gauge needle attached to a 25 μl syringe was used to perform intravitreal injections. In certain instances, intravitreal injections 5 μl of 4 μM Shikolin (Sigma-Aldrich, MO, USA), 10 μM JIB-04 (Sigma-Aldrich, MO, USA), 5 μl of 100 mg/4 ml Avastin (Hoffmann-La Roche, Basel, Switzerland) or of vehicle (an equal volume of dimethyl sulfoxide; J. T. Baker, NJ, USA) were performed on ischemic eyes fifteen minutes before pressure induced retinal ischemia.
(§4) Twenty-four hours after retinal ischemia and pre-/post-ischemia administration of the defined chemicals or after a sham procedure, the rats were sacrificed. The retinas were removed and sonicated in lysis buffer, namely mammalian protein extraction reagent (HyCell, Taipei, Taiwan). […] Journal of Ocular Pharmacology and Therapeutics. 2010; 26(5):421-429; Hsiao-Ming Chao, Min-Jay Chuang, Jorn-Hon Liu, Xiao-Qian Liu, Li-Kang Ho, Wynn H. T. Pan, Xiu-Mei Zhang, Chi-Ming Liu, Shen-Kou Tsai, Chi-Woon Kong, Shou-Dong Lee, Mi-Mi Chen, and Fang-Ping Chao. Baicalein protects against retinal ischemia by antioxidation, antiapoptosis, downregulation of HIF-1α, VEGF, and MMP-9 and upregulation of HO-1. Journal of Ocular Pharmacology and Therapeutics. 29(6): 539-549, 2013). The separated proteins were transferred to a polyvinylidene difluoride (PVDF) membrane (Millipore, MA, USA). The membranes were then blocked for 1 hour at room temperature with 5% fat-free skimmed milk (Fonterra, Taoyuan, Taiwan) in phosphate-buffered saline (PBS). Next, the blots were incubated individually overnight at 4° C. with one of the following primary antibodies, namely, mouse monoclonal anti-β-actin antibody (1:80000, Novusbio, MA, USA), mouse monoclonal anti-VEGF antibody (1:200, Novusbio, MA, USA), mouse monoclonal anti-HIF-1α antibody (1:1000, Abcom, Cambridge, UK), rabbit polyclonal anti-PKM2 antibody (1:600, Abcom, Cambridge, UK) and rabbit monoclonal anti-RBP2 antibody (1:500, Abcom, Cambridge, UK). The blots were then incubated in the secondary antibody, either horseradish peroxidase (HRP)-conjugated goat anti-rabbit or antimouse IgG (1:2000 or 1:10000, Santa Cruz Biotechnology, TX, USA) as appropriate at 37° C. for 1 h. The primary/secondary antibodies were diluted in 5% fat-free skimmed milk. Finally, the membranes were developed using the enhanced chemiluminescent analysis system (HyCell, Taipei, Taiwan), and exposed to an X-ray film (Fujifilm, Tokyo, Japan). Scanning densitometry was used to analyze the amount of each protein present.

PKM2 protein = conditions: intravitreal 5 μl 15 min before ischemia: 4 μM Shikonin, 10 μM JIB-04, 100 mg/4 ml Avastin; Vehicle 4.04±0.50
Procedure: as §1, §2, §3, §4

RBP2 protein = conditions: intravitreal 5 μl 15 min before ischemia: 4 μM Shikonin, 10 μM JIB-04, 100 mg/4 ml Avastin; Vehicle 7.77±2.27
Procedure: as §1, §2, §3, §4

VEGF protein = conditions: intravitreal 5 μl 15 min before ischemia: 4 μM Shikonin, 10 μM JIB-04, 100 mg/4 ml Avastin; Vehicle 6.92±1.55
Procedure: as §1, §2, §3, §4

Row | Compound | ratio of protein expression level of HIF-1α relative to β-actin (HIF-1α protein) | ratio of protein expression level of PKM2 relative to β-actin (PKM2 protein) | ratio of protein expression level of RBP2 relative to β-actin (RBP2 protein) | ratio of protein expression level of VEGF relative to β-actin (VEGF protein)
1 | Avastin: VEGF antibody (Hoffmann-La Roche) | 3.65±0.84 | 3.42±0.88 | 6.00±3.61 | 1.08±0.23
2 | CC(C)=CC[C@@H](O)C1=CC(=O)c2c(O)ccc(O)c2C1=O [Shikonin] | 1.95±0.76 | 0.61±0.19 | 1.00±0.71 | 1.84±0.60
3 | Clc1ccc(N/N=C(\c2ccccc2)c2ccccn2)nc1 [JIB-04] | 2.14±1.11 | 1.67±1.31 | 1.16±0.14 | 1.68±0.46
